Results as given in publication PMC11091889, “Silver Organometallics that are Highly Potent Thioredoxin and Glutathione Reductase Inhibitors: Exploring the Correlations of Solution Chemistry with the Strong Antibacterial Effects” (ACS Infectious Diseases, 2024).

Tests used:
[1] = system: P. aeruginosa (PA 14) biofilm; assay: Inhibition of biofilm formation, crystal violet staining; type: cell-based, Pseudomonas aeruginosa
Description: Silver and its complexes can strongly affect the growth of biofilms.[56]−[58] In view of the promising activity against Gram-negative bacteria as mentioned above, we evaluated the inhibiting effect of the silver complexes on biofilm production by P. aeruginosa by a method based on crystal violet staining (Table 4 and Figure S14). Complexes 3a–c and 4a–c were selected for the test based on the results of solubility, stability, and antibacterial screening. […] The lower activity of 3c might be explained by its lower kinetic solubility in the aqueous environment (see Figure 4).
The antibiofilm activity was determined according to a literature method.[73] A 1 mL aliquot of P. aeruginosa (PA 14) was taken from −20 °C stock, incubated in 25 mL LB medium (Luria–Bertani Broth) in a 250 mL flask, and kept at 37 °C at 100 rpm overnight. The optical density at 600 nm (OD600) of the culture solution was adjusted to match the turbidity of a 0.1 McFarland standard in M63 medium.[74] Selected compounds were mixed with 150 μL of bacterial solution in U-bottom 96 well plates to the final respective concentrations (25–0.2 μg/mL). The plates were further incubated at 37 °C for 24 h while shaking at 150 rpm. Afterward, the plates were rinsed once with 150 μL of PBS buffer, and the biofilms were stained using 150 μL of crystal violet (0.1%) staining at room temperature for 15 min and then rinsed once with PBS buffer. After rinsing, 150 μL of ethanol (95%) was added, and the absorbance was quantified using a plate reader (Synergy 2, BioTek, Santa Clara, USA) at 550 nm. The resulting antibiofilm activity is presented as percentage of inhibition at the respective smallest active concentration in μM with standard deviation (SD) of two repeats with duplicates. Myxovalargin A and DMSO (2.5%) were used as the positive and negative controls, respectively.

[2] = system: A. baumannii (DSM 30007, ATCC 19606); assay: Broth microdilution antibacterial assay; type: cell-based, Acinetobacter baumannii; conditions: n = 3, MHB; for MIC A. baumannii / EC50: mean ± standard error; for MIC A. baumannii / MIC A. baumannii (value in brackets): 22 h; for EC50: read-out: EC50 A. baumannii
Protocol: (§1) The antibacterial effect of the silver NHC complexes and selected ligands was evaluated in two Gram-positive [Enterococcus faecium, methicillin resistant S. aureus, (MRSA)] and in four Gram-negative (Acinetobacter baumannii, Escherichia coli, Klebsiella pneumoniae, and Pseudomonas aeruginosa) pathogenic bacterial strains using broth microdilution assays. The resulting minimal inhibitory concentrations (MICs, Table 2) and EC50 (Table S6) were determined by a curve fitting procedure. Silver nitrate (AgNO3), SSD, and various antibiotics were used as references.
(§2) The following strains of ESKAPE panel were utilized and maintained at 37 °C in MHB (21 g/L Müller Hinton broth, pH 7.4) or TSY (30 g/L trypticase soy broth, 3 g/L yeast extract, pH 7.0–7.2) media: A. baumannii (DSM 30007, ATCC 19606), E. coli (DSM1116, ATCC 9637), K. pneumoniae (DSM 11678, ATCC33495), P. aeruginosa PA7 (DSM 24068) in MHB; E. faecium (DSM 20477, ATCC 19434), and S. aureus MRSA (DSM 11822, ICB 25701) in TSY. MIC values were determined following a standardized protocol in broth microdilution assays. The compounds and reference substances (AgNO3 and SSD) were serially diluted from 64 to 1 μg/mL. Starting inocula of 2–8 × 10^5 CFU/mL in MHB or TSY media at 37 °C were used, and serial dilutions were carried out in 96-well microtiter plates in duplicate. After incubation of the plates for 22 h at 37 °C, the absorbance at 600 nm was measured using The Spark multimode microplate reader (Tecan Trading AG). The MIC values for the tested compounds were determined in three independent experiments and presented in μM with standard errors and also in μg/mL. Amikacin (P. aeruginosa), linezolid (S. aureus), and ciprofloxacin (all other strains) served as positive controls. The MIC and EC50 values were determined by curve fitting with Sigma Plot. To determine the effect of the culture medium on the activity of silver compounds, the assay was performed using MHB, TSY, or DMEM (Gibco). To observe the effect of individual components of TSY medium, antibacterial tests were performed using MHB with addition of tryptone (17 g/L) or yeast extract (3 g/L, both were purchased from Sigma).

[3] = system: P. aeruginosa PA7 (DSM 24068); assay: microbe, parasite or virus in culture; type: cell-based, Pseudomonas aeruginosa; conditions: n = 3, MHB; for MIC P. aeruginosa / EC50: mean ± standard error; for MIC P. aeruginosa / MIC P. aeruginosa (value in brackets): 22 h; for EC50: read-out: EC50 P. aeruginosa
Protocol: as §1, §2

[4] = system: E. coli (DSM1116, ATCC 9637); assay: microbe, parasite or virus in culture; type: cell-based, Escherichia coli; conditions: n = 3, MHB; for EC50 / MIC E. coli: mean ± standard error; for MIC E. coli / MIC E. coli (value in brackets): 22 h
Protocol: as §1, §2

[5] = Conductometry: molar conductivity of silver complexes in DMSO; type: physicochemical; conditions: 1.0 mM in DMSO, calculated as monocarbene (NHC)AgX
Protocol: Since both the neutral monocarbene and the ionic biscarbene form of the complexes may exist in various proportions in the solution, conductometry studies were performed to reveal the dominant structure. The molar conductivity of 1.0 mM solutions of each complex in DMSO was determined after different periods up to 24 h using AgNO3 as 1:1 electrolyte reference (see Table 1). According to the literature, the expected range of molar conductivity for 1:1 electrolytes in DMSO is 35–90 S cm^2 mol^–1.[45],[46]
Conductivity measurements were performed using an Apera Instruments EC9500 conductivity meter. Solutions (as indicated, otherwise 1.0 mM) of all compounds were prepared using freshly distilled DMSO with a specific electrical conductivity of ≤3 × 10^–8 S cm^–1. The conductivities were measured at 25 ± 2 °C immediately after complete dissolution and after 24 h.

[6] = system: E. faecium (DSM 20477, ATCC 19434); assay: Broth microdilution antibacterial assay; type: cell-based, Enterococcus faecium; conditions: n = 3, TSY; for MIC E. faecium / EC50: mean ± standard error; for MIC E. faecium / MIC E. faecium (value in brackets): 22 h; for EC50: read-out: EC50 E. faecium
Protocol: as §1, §2

[7] = system: K. pneumoniae (DSM 11678, ATCC33495); assay: Broth microdilution antibacterial assay; type: cell-based, Klebsiella pneumoniae; conditions: n = 3, MHB; for MIC K. pneumoniae / EC50: mean ± standard error; for MIC K. pneumoniae / MIC K. pneumoniae (value in brackets): 22 h; for EC50: read-out: EC50 K. pneumoniae
Protocol: as §1, §2

[8] = system: S. aureus MRSA (DSM 11822, ICB 25701); assay: microbe, parasite or virus in culture; type: cell-based, methicillin resistant S. aureus; conditions: n = 3, TSY; for MIC MRSA / EC50: mean ± standard error; for MIC MRSA / MIC MRSA (value in brackets): 22 h; for EC50: read-out: EC50 MRSA
Protocol: as §1
The importance of the culture medium used in antibacterial assays has been pointed out for antibiotics and in particular for silver.[53]−[55] In our recent studies, tryptic soy yeast (TSY) broth has been used for growing Gram-positive bacteria. Two components thereof, tryptone and yeast extract, have been reported to affect the antibacterial activity of silver nitrate.[55] Moreover, such an effect was also observed for other media containing at least one of those components.[11],[53] […] Silver nitrate served as a reference, and three different growth media were studied, namely, Müller-Hinton Broth (MHB, commonly used for Gram-negative bacteria), TSY broth (commonly used for Gram-positive bacteria), and DMEM supplemented with 10% FCS (commonly used for growth of mammalian and human cells).
as §2

| Molecule | MIC A. baumannii [2] | EC50 [2] | MIC A. baumannii (value in brackets) [2] | MIC P. aeruginosa [3] | EC50 [3] | MIC P. aeruginosa (value in brackets) [3] | EC50 [4] | MIC E. coli [4] | MIC E. coli (value in brackets) [4] | Molar conductivity ΛM ([5]; 1 h after dissolution) | Molar conductivity ΛM ([5]; 24 h after dissolution) | MIC E. faecium [6] | EC50 [6] | MIC E. faecium (value in brackets) [6] | MIC K. pneumoniae [7] | EC50 [7] | MIC K. pneumoniae (value in brackets) [7] | MIC MRSA [8] | EC50 [8] | MIC MRSA (value in brackets) [8] | further results |
| --- | --- | --- | --- | --- | --- | --- | --- | --- | --- | --- | --- | --- | --- | --- | --- | --- | --- | --- | --- | --- | --- |
| myxovalargin A [reference compound] | – | – | – | – | – | – | – | – | – | – | – | – | – | – | – | – | – | – | – | – | smallest active concentration for biofilm inhibition ([1]; concentration at which the % inhibition was found): 18.6 µM; biofilm inhibition ([1]; ± SD, n = 4, at the respective smallest active concentration, 24 h): 68 ± 0% |
| Cn1[c]([Ag][Cl])[n+](Cc2ccccn2)c2ccccc21 [1a] | 14.6 ± 3.6 µM | 1.7 ± 0.4 µM | 5 µg/mL | 10.9 ± 0.0 µM | 5.7 ± 0.8 µM | 4 µg/mL | 53.3 ± 8.6 µM | 116 ± 29 µM | 43 µg/mL | 2.88 S cm^2 mol^–^1 | 3.05 S cm^2 mol^–^1 | 175 ± 0.0 µM | 145 ± 2.3 µM | 64 µg/mL | 18.2 ± 3.6 µM | 8.5 ± 1.2 µM | 7 µg/mL | 175 ± 0.0 µM | 146 ± 2.8 µM | 64 µg/mL | – |
| CCn1[c](=[Ag][Cl])n(Cc2ccccn2)c2ccccc21 [2a, Chlorido (1-Ethyl-3-(pyridin-2-ylmethyl)-benzimidazol-2-ylidene) Silver(I)] | 10.5 ± 0.0 µM | 2.4 ± 0.1 µM | 4 µg/mL | 10.5 ± 0.0 µM | 6.4 ± 0.5 µM | 4 µg/mL | 33.3 ± 4.7 µM | 56.0 ± 14.0 µM | 21 µg/mL | 3.47 S cm^2 mol^–^1 | 3.03 S cm^2 mol^–^1 | 168 ± 0.0 µM | 132 ± 6.8 µM | 64 µg/mL | 17.5 ± 3.5 µM | 12 ± 0.9 µM | 7 µg/mL | 168 ± 0.0 µM | 98.5 ± 0.8 µM | 64 µg/mL | – |
| [Cl][Ag][c]1n(Cc2ccccc2)c2ccccc2[n+]1Cc1ccccn1 [5a] | 9.0 ± 0.0 µM | 1.7 µM | 4 µg/mL | 30.1 ± 6.0 µM | 16 ± 1.7 µM | 13 µg/mL | 35.1 ± 1.1 µM | 60.2 ± 12.0 µM | 27 µg/mL | 4.24 S cm^2 mol^–^1 | 3.70 S cm^2 mol^–^1 | 145 ± 0.0 µM | 119 ± 3.6 µM | 64 µg/mL | 18.1 ± 0.0 µM | 8.5 ± 1 µM | 8 µg/mL | 145 ± 0.0 µM | 82.9 ± 1.5 µM | 64 µg/mL | – |
| [Br][Ag][c]1n(Cc2ccccn2)c2ccccc2[n+]1Cc1ccccn1 [6b] | 8.2 ± 0.0 µM | 0.47 ± 0.02 µM | 4 µg/mL | 27.3 ± 5.5 µM | 13.5 ± 3.7 µM | 13 µg/mL | 14.6 ± 1 µM | 21.9 ± 5.5 µM | 10 µg/mL | 6.13 S cm^2 mol^–^1 | 6.50 S cm^2 mol^–^1 | 132 ± 0.0 µM | 105 ± 0.1 µM | 64 µg/mL | 13.7 ± 0.0 µM | 6.4 ± 0.2 µM | 7 µg/mL | 132 ± 0.0 µM | 90.7 ± 4.5 µM | 64 µg/mL | – |
| Cn1[c](=[Ag][Br])n(Cc2ccccn2)c2ccccc21 [1b, Bromido (1-Methyl-3-(pyridin-2-ylmethyl)-benzimidazol-2-ylidene) Silver(I)] | 16.2 ± 3.2 µM | 2.6 ± 0.3 µM | 7 µg/mL | 25.9 ± 6.5 µM | 10.9 ± 3.9 µM | 11 µg/mL | 71.3 ± 6.7 µM | 103 ± 25 µM | 43 µg/mL | 4.75 S cm^2 mol^–^1 | 4.82 S cm^2 mol^–^1 | 156 ± 0.0 µM | 129 ± 2.8 µM | 64 µg/mL | 16.2 ± 3.2 µM | 10 ± 2.2 µM | 7 µg/mL | 156 ± 0.0 µM | 134 ± 14 µM | 64 µg/mL | – |
| [Cl][Ag][c]1n(Cc2ccccn2)c2ccccc2[n+]1Cc1ccccn1 [6a] | 9.0 ± 0.0 µM | 1.6 ± 0.1 µM | 4 µg/mL | 60.1 ± 12.0 µM | 33.6 ± 5.8 µM | 27 µg/mL | 38.1 ± 6.9 µM | 48.1 ± 12.0 µM | 21 µg/mL | 3.75 S cm^2 mol^–^1 | 4.15 S cm^2 mol^–^1 | 144 ± 0.0 µM | 133 ± 0.6 µM | 64 µg/mL | 9.02 ± 0.0 µM | 5.9 ± 0.2 µM | 4 µg/mL | 144 ± 0.0 µM | 91.3 ± 0.6 µM | 64 µg/mL | – |
